The source of these data is PubChem BioAssay AID1918941 (Molecular Pharmacology Branch, DTP, NCI, 2023).

The subject of this test is SW 1271 complex spheroids, viability. The test can be described thus: Anticancer human tumor SW 1271 cell line growth inhibition [LSD1].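 For all read-outs here: spheroids exposed to agents for 7 days before luminescence read.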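 For viability, T/C: 100% = DMSO vehicle control viability.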 The settings on record: for viability, T/C: stronger effect = lower value. In outline:
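Complex spheroids of tumor cells with HUVEC and human MSCs, exposed to iadademstat combined with other agents. Each agent tested in half-log steps from near clinical Cmax (else 10 microM top), DMSO ≤0.25%.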

[1] abbreviates: curve of first compound, second compound 0.1 µM.
[2] abbreviates: curve of first compound, second compound 0.316 µM.
[3] abbreviates: curve of first compound, second compound 1 µM.
[4] abbreviates: curve of first compound, second compound 3.16 µM.
Where [5] appears, read: curve of first compound, second compound 10 µM.
Setting [6] is: second compound 0.1 µM, first compound 0.00316 µM.
[7] abbreviates: second compound 0.1 µM, first compound 0.01 µM.
[8] abbreviates: second compound 0.1 µM, first compound 0.0316 µM.
[9] abbreviates: second compound 0.1 µM, first compound 0.1 µM.
The mark [10] stands for this setting: second compound 0.316 µM, first compound 0.00316 µM.
Setting [11] is: second compound 0.316 µM, first compound 0.01 µM.
The mark [12] stands for this setting: second compound 0.316 µM, first compound 0.0316 µM.
The mark [13] stands for this setting: second compound 0.316 µM, first compound 0.1 µM.
Setting [14] is: second compound 1 µM, first compound 0.00316 µM.
Setting [15] is: second compound 1 µM, first compound 0.01 µM.
Where [16] appears, read: second compound 1 µM, first compound 0.0316 µM.
Setting [17] is: second compound 1 µM, first compound 0.1 µM.
The mark [18] stands for this setting: second compound 3.16 µM, first compound 0.00316 µM.
Where [19] appears, read: second compound 3.16 µM, first compound 0.01 µM.
[20] abbreviates: second compound 3.16 µM, first compound 0.0316 µM.
Setting [21] is: second compound 3.16 µM, first compound 0.1 µM.
[22] abbreviates: second compound 10 µM, first compound 0.00316 µM.
[23] abbreviates: second compound 10 µM, first compound 0.01 µM.
Where [24] appears, read: second compound 10 µM, first compound 0.0316 µM.
[25] abbreviates: second compound 10 µM, first compound 0.1 µM.
[26] abbreviates: second compound 0.1 µM, first compound 0.316 µM.
Where [27] appears, read: second compound 0.1 µM, first compound 1 µM.
The mark [28] stands for this setting: second compound 0.1 µM, first compound 3.16 µM.
[29] abbreviates: second compound 0.1 µM, first compound 10 µM.
The mark [30] stands for this setting: second compound 0.316 µM, first compound 0.316 µM.
Setting [31] is: second compound 0.316 µM, first compound 1 µM.
The mark [32] stands for this setting: second compound 0.316 µM, first compound 3.16 µM.
[33] abbreviates: second compound 0.316 µM, first compound 10 µM.
Where [34] appears, read: second compound 1 µM, first compound 0.316 µM.
[35] abbreviates: second compound 1 µM, first compound 1 µM.
The mark [36] stands for this setting: second compound 1 µM, first compound 3.16 µM.
Where [37] appears, read: second compound 1 µM, first compound 10 µM.
Where [38] appears, read: second compound 3.16 µM, first compound 0.316 µM.
Setting [39] is: second compound 3.16 µM, first compound 1 µM.
[40] abbreviates: second compound 3.16 µM, first compound 3.16 µM.
The mark [41] stands for this setting: second compound 3.16 µM, first compound 10 µM.
[42] abbreviates: second compound 10 µM, first compound 0.316 µM.
Setting [43] is: second compound 10 µM, first compound 1 µM.
[44] abbreviates: second compound 10 µM, first compound 3.16 µM.
Where [45] appears, read: second compound 10 µM, first compound 10 µM.

Several values for one entry are separate records, joined by “and”; a condition that tells them apart may be missing. Equal entries are not always repeated.

Broadly, the IC50 is the concentration that inhibits the measured activity by half. The viability, T/C is the result in the treated group divided by that in the control group, in per cent. As to `Cn1ncnc1C1c2n[nH]c(=O)c3cc(F)cc(c23)NC1c1ccc(F)cc1` (configuration not stated) + NC1CC1c1ccc(-c2cccc(O)c2)cc1, the IC50 is, setting by setting: under setting [1], more than 100 nM; under setting [2], more than 100 nM; under setting [3], more than 100 nM; under setting [4], more than 100 nM; under setting [5], 65.5 nM. The viability, T/C (second compound 0.1 µM, first compound 0.000316 µM) is 97.8%; the viability, T/C (second compound 0.1 µM, first compound 0.001 µM) is 80.9%; the viability, T/C under setting [6] is 72.3%; the viability, T/C under setting [7] is 85.8%; the viability, T/C under setting [8] was 71.3%; the viability, T/C under setting [9] was 66.7%. Besides, the viability, T/C is, setting by setting: (second compound 0.316 µM, first compound 0.000316 µM) 77.6%; (second compound 0.316 µM, first compound 0.001 µM) 72.6%; under setting [10], 67.5%; under setting [11], 68.9%; under setting [12], 71%; under setting [13], 77%. Further, the viability, T/C is, setting by setting: (second compound 1 µM, first compound 0.000316 µM) 78.1%; (second compound 1 µM, first compound 0.001 µM) 75.7%; under setting [14], 72.8%; under setting [15], 67.5%; under setting [16], 66.1%; under setting [17], 82.7%. Besides, the viability, T/C by setting is: (second compound 3.16 µM, first compound 0.000316 µM) 75.8%; (second compound 3.16 µM, first compound 0.001 µM) 85.5%; under setting [18], 78.9%; under setting [19], 57.3%; under setting [20], 59.2%; under setting [21], 57.9%. Further, the viability, T/C (second compound 10 µM, first compound 0.000316 µM) was 64.7%; the viability, T/C (second compound 10 µM, first compound 0.001 µM) is 66.7%; the viability, T/C under setting [22] is 67.2%; the viability, T/C under setting [23] is 61.3%; the viability, T/C under setting [24] is 48.6%; the viability, T/C under setting [25] was 49.7%.
In the case of `NC1CC1c1ccc(-c2cccc(O)c2)cc1` (configuration not stated), the viability, T/C is 86.2% (compound 0.1 µM) and 63.2% [middle of 25 runs] (compound 10 µM). In addition, the IC50 (compound alone, run of 02/21/2022) was more than 10000 nM.
As to `Nc1ncn(C2CC(O)C(CO)O2)c(=O)n1` (configuration not stated), the viability, T/C (compound 0.00316 µM) is 96% and 88.2%; the viability, T/C (compound 0.01 µM) was 86.6% and 105%; the viability, T/C (compound 0.0316 µM) is 83.1% and 88.3%; the viability, T/C (compound 0.1 µM) is 86.9% and 93.3%; the viability, T/C (compound 0.316 µM) is 83% and 80.3%; the viability, T/C (compound 1 µM) is 86.7% and 89.8%. Also, for the setting “curve of compound”, the IC50 was more than 1000 nM.
For the compound `CC1(C)CCC(CN2CCN(c3ccc(C(=O)NS(=O)(=O)c4ccc(NCC5CCOCC5)c([N+](=O)[O-])c4)c(Oc4cnc5[nH]ccc5c4)c3)CC2)=C(c2ccc(Cl)cc2)C1` + NC1CCC(NC2CC2c2ccccc2)CC1, the IC50 was 2100 nM under setting [1]; 2050 nM under setting [2]; 2040 nM under setting [3]; 2170 nM under setting [4]; 2350 nM under setting [5]. The viability, T/C under setting [8] is 103%; the viability, T/C under setting [9] was 95.6%; the viability, T/C under setting [26] was 94.6%; the viability, T/C under setting [27] was 92.2%; the viability, T/C under setting [28] was 26.9%; the viability, T/C under setting [29] was 0.57%. Further, the viability, T/C is 100% under setting [12]; 100% under setting [13]; 106% under setting [30]; 96.6% under setting [31]; 21.6% under setting [32]; 0.63% under setting [33]. Also, the viability, T/C runs as follows: under setting [16], 89.5%; under setting [17], 90.5%; under setting [34], 99.7%; under setting [35], 103%; under setting [36], 21.9%; under setting [37], 0.38%. Besides, the viability, T/C is, setting by setting: under setting [20], 96.4%; under setting [21], 101%; under setting [38], 99%; under setting [39], 97.2%; under setting [40], 26.9%; under setting [41], 0.42%. Moreover, the viability, T/C reads like this: under setting [24], 92.5%; under setting [25], 102%; under setting [42], 97.8%; under setting [43], 95.4%; under setting [44], 34.3%; under setting [45], 0.66%.
For the compound `CC1COCCN1c1cc(C2(S(C)(=N)=O)CC2)nc(-c2ccnc3[nH]ccc23)n1` (configuration not stated), the viability, T/C by setting is: (compound 0.0316 µM) 106% and 85.9%; (compound 0.1 µM) 97% and 88.6%; (compound 0.316 µM) 88.2% and 78.9%; (compound 1 µM) 79% and 65.3%; (compound 3.16 µM) 62% and 54.3%; (compound 10 µM) 62.1% and 39.4%. Moreover, the 50% inhibitory concentration (IC50) (curve of compound) was > 10000 nM and 3980 nM.
As for `O=C(c1cc(Cc2n[nH]c(=O)c3ccccc23)ccc1F)N1CCN(C(=O)C2CC2)CC1` + NC1CC1c1ccc(-c2cccc(O)c2)cc1, the IC50 reads like this: under setting [1], 8950 nM; under setting [2], 5660 nM; under setting [3], 6290 nM; under setting [4], 3740 nM; under setting [5], more than 10000 nM. The viability, T/C runs as follows: under setting [8], 78.1%; under setting [9], 87%; under setting [26], 92.7%; under setting [27], 72.9%; under setting [28], 61.4%; under setting [29], 48.2%. The viability, T/C reads like this: under setting [12], 84.5%; under setting [13], 76.1%; under setting [30], 78%; under setting [31], 67.5%; under setting [32], 54.9%; under setting [33], 44.1%. For the same compound, the viability, T/C is 81.4% under setting [16]; 74.4% under setting [17]; 70% under setting [34]; 65.1% under setting [35]; 56.8% under setting [36]; 45.4% under setting [37]. Also, the viability, T/C is 72.1% under setting [20]; 63.4% under setting [21]; 68.3% under setting [38]; 58.4% under setting [39]; 52.9% under setting [40]; 38.9% under setting [41]. The viability, T/C is, setting by setting: under setting [24], 66.9%; under setting [25], 66.8%; under setting [42], 63%; under setting [43], 57.9%; under setting [44], 52.7%; under setting [45], 51.3%.
On to `O=C(C=Cn1cnc(-c2cc(C(F)(F)F)cc(C(F)(F)F)c2)n1)NNc1cnccn1` + NC1CC1c1ccc(-c2cccc(O)c2)cc1, for which the IC50 amounted to 140 nM under setting [1]; 148 nM under setting [2]; 88.9 nM under setting [3]; 171 nM under setting [4]; 195 nM under setting [5]. Moreover, the viability, T/C by setting is: under setting [6], 79%; under setting [7], 70.9%; under setting [8], 66.7%; under setting [9], 49.3%; under setting [26], 45.3%; under setting [27], 21.6%. Further, the viability, T/C was 68.7% under setting [10]; 74.1% under setting [11]; 64.8% under setting [12]; 51.7% under setting [13]; 42% under setting [30]; 19.4% under setting [31]. Further, the viability, T/C is, setting by setting: under setting [14], 73%; under setting [15], 64.1%; under setting [16], 69.5%; under setting [17], 41.3%; under setting [34], 39.7%; under setting [35], 23.7%. Moreover, the viability, T/C under setting [18] is 73.9%; the viability, T/C under setting [19] is 77.3%; the viability, T/C under setting [20] is 76.1%; the viability, T/C under setting [21] is 53.3%; the viability, T/C under setting [38] is 43.1%; the viability, T/C under setting [39] was 23.4%. Further, the viability, T/C runs as follows: under setting [22], 71.2%; under setting [23], 73.6%; under setting [24], 68.1%; under setting [25], 55.3%; under setting [42], 45.8%; under setting [43], 28%.
